{"source": "patent US10858365B2", "about": "“Triazolo-pyrimidine compounds and uses thereof” (Dizal (Jiangsu) Pharmaceutical Co., Ltd., priority 2018, dated 2020)", "type_in_all_cases": "cell-based", "key": {"[1]": {"target": "hA2a (Homo sapiens (Human), UniProt P29274)", "sequence (P29274 whole entry)": "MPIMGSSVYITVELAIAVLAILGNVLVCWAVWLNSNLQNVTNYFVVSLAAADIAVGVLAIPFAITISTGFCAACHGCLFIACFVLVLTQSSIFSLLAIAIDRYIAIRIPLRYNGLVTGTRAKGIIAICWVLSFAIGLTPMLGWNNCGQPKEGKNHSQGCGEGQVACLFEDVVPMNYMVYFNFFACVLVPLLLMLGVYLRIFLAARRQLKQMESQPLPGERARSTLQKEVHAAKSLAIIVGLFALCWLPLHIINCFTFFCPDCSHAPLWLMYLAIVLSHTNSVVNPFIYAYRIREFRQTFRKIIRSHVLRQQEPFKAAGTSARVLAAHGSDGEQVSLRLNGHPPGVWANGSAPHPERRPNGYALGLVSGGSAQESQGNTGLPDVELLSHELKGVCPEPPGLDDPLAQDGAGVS", "assay": "cAMP inhibition assay in hA2a/CHO cells", "details": "adenosine stimulation, read-out: cAMP & FLIPR IC50 (nM) hA2a", "outline": "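CHO cells expressing human A2a, human A2b or mouse A2a, 5×10^3 cells/well, pre-incubated with compound 30 min at 37 °C, then stimulated with […] adenosine 30 min at 37 °C. cAMP read after 60 min room-temperature incubation with detection reagent.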"}, "[2]": {"target": "hA1 (Homo sapiens (Human), UniProt P30542)", "sequence (P30542 whole entry)": "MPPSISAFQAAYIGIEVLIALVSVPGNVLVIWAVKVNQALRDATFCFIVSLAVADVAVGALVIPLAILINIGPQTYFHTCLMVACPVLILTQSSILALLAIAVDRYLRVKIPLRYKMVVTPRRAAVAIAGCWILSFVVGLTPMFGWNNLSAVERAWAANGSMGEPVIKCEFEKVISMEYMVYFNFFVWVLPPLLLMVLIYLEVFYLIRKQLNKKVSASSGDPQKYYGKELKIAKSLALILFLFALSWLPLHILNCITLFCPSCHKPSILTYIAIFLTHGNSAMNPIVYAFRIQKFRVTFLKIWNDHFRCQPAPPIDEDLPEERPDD", "assay": "FLIPR inhibition assay in hADORA1/CHO (hA1 expressing) cells", "details": "hADORA1/CHO cells, FLIPR calcium, adenosine stimulation; read-out: cAMP & FLIPR IC50 (nM) hA1", "outline": "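CHO cells expressing human A1 were plated at 1×10^4 cells/well the day before, then loaded with FLIPR Calcium 5 dye for 60 min at 37 °C, 5% CO2. Compounds were added at several concentrations for 400 s before stimulation with […] adenosine. The calcium signal was recorded by FLIPR.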"}, "[3]": {"target": "hA2b (Homo sapiens (Human), UniProt P29275)", "sequence (P29275 whole entry)": "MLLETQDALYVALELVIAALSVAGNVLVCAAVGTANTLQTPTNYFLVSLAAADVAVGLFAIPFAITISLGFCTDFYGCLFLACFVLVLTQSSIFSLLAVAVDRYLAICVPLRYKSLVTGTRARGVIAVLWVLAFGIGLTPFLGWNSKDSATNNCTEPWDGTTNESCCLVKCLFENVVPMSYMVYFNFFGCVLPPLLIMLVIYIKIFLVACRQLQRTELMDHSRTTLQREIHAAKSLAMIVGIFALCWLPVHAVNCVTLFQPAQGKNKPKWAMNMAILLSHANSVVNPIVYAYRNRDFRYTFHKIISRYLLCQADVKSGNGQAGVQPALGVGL", "assay": "cAMP inhibition assay in hA2b/CHO cells", "details": "adenosine stimulation, read-out: cAMP & FLIPR IC50 (nM) hA2b", "protocol": "(§1) hA2a/CHO, hA2b/CHO and mA2a/CHO (Genscript) were plated at 5×10^3 cells/well into 384-well polystyrene plates at the day of experiment. Compounds were pre-incubated with cells for 30 min at 37° C., 5% CO2. Then […] adenosine was added to the cells and incubated for 30 min at 37° C., 5% CO2. Detection reagent (CISBIO) was added and the plates were incubated for 60 min at room temperature. The signal was captured by Envision."}, "[4]": {"target": "mA2a (Mus musculus (Mouse), UniProt Q60613)", "sequence (Q60613 whole entry)": "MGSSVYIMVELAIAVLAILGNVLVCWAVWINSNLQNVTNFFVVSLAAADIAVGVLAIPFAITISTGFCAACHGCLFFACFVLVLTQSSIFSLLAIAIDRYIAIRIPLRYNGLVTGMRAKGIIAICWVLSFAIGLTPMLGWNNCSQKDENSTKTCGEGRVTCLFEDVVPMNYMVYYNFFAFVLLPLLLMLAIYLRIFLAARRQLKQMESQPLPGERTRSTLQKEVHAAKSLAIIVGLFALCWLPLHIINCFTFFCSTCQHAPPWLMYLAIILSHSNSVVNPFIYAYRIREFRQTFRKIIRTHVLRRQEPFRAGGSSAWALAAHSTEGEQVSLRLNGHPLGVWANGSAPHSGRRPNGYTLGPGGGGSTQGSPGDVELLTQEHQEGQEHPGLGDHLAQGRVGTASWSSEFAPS", "assay": "cAMP inhibition assay in mA2a/CHO cells", "details": "adenosine stimulation, read-out: cAMP & FLIPR IC50 (nM) mA2a", "protocol": "as §1"}}}
{"smiles": "Nc1nc(-c2ccc(F)cc2)c(-c2ccc(=O)n(CCO)c2)c2nc(Cc3ncccc3F)nn12", "note": "[Example 95, 5-(5-amino-7-(4-fluorophenyl)-2-((3-fluoropyridin-2-yl)methyl)-[1,2,4]triazolo[1,5-c]pyrimidin-8-yl)-l-(2-hydroxyethyl)pyridin-2(1H)-one]", "values": [{"measurement": "IC50", "setting": "[1]", "result": 3.7, "unit": "nM"}, {"measurement": "IC50", "setting": "[2]", "result": 27, "unit": "nM"}, {"measurement": "IC50", "setting": "[3]", "result": 241, "unit": "nM"}, {"measurement": "IC50", "setting": "[4]", "result": 8.9, "unit": "nM"}]}
{"smiles": "Nc1nc(-c2ccc(F)cc2)c(-c2ccc3nccnc3c2)c2nc(Cc3ncccc3F)nn12", "note": "[Example 96, 7-(4-fluorophenyl)-2-((3-fluoropyridin-2-yl)methyl)-8-(quinoxalin-6-yl)-[l,2,4]triazolo[l,5-c] pyrimidin-5-amine]", "values": [{"measurement": "IC50", "setting": "[1]", "result": 25, "unit": "nM"}, {"measurement": "IC50", "setting": "[2]", "result": 681, "unit": "nM"}, {"measurement": "IC50", "setting": "[3]", "result": 3800, "unit": "nM"}, {"measurement": "IC50", "setting": "[4]", "result": 123, "unit": "nM"}]}
{"smiles": "Cn1cc(-c2c(-c3ccc4c(ccn4C)c3)nc(N)n3nc(Cc4ncccc4F)nc23)ccc1=O", "note": "[Example 97, 5-(5-amino-2-((3-fluoropyridin-2-yl)methyl)-7-(1-methyl-1H-indol-5-yl)-[1,2,4]triazolo[1,5-c]pyrimidin-8-yl)-1-methylpyridin-2(1H)-one]", "values": [{"measurement": "IC50", "setting": "[1]", "result": 47, "unit": "nM"}, {"measurement": "IC50", "setting": "[2]", "result": 19, "unit": "nM"}, {"measurement": "IC50", "setting": "[3]", "result": 1720, "unit": "nM"}, {"measurement": "IC50", "setting": "[4]", "result": 120, "unit": "nM"}]}
{"smiles": "COc1ccccc1-c1nc(N)n2nc(Cc3ncccc3F)nc2c1-c1ccc(=O)n(C)c1", "note": "[Example 98, 5-(5-amino-2-((3-fluoropyridin-2-yl)methyl)-7-(2-methoxyphenyl)-[1,2,4]triazolo[1,5-c]pyrimidin-8-yl)-1-methylpyridin-2(1H)-one]", "values": [{"measurement": "IC50", "setting": "[1]", "result": 88, "unit": "nM"}, {"measurement": "IC50", "setting": "[2]", "result": 333, "unit": "nM"}, {"measurement": "IC50", "setting": "[3]", "result": 1540, "unit": "nM"}, {"measurement": "IC50", "setting": "[4]", "result": 224, "unit": "nM"}]}
{"smiles": "Cc1cnc2ccc(-c3c(-c4ncco4)nc(N)n4nc(Cc5ncccc5F)nc34)cn12", "note": "[Example 99, 2-((3-fluoropyridin-2-yl)methyl)-8-(3-methylimidazo[l,2-a]pyridin-6-yl)-7-(oxazol-2-yl)-[l,2,4] triazolo[l,5-c]pyrimidin-5-amine]", "values": [{"measurement": "IC50", "setting": "[1]", "result": 0.5, "unit": "nM"}, {"measurement": "IC50", "setting": "[2]", "result": 3.5, "unit": "nM"}, {"measurement": "IC50", "setting": "[3]", "result": 21, "unit": "nM"}, {"measurement": "IC50", "setting": "[4]", "result": 0.8, "unit": "nM"}]}
{"smiles": "Cc1cnc2ccc(-c3c(N(C)C)nc(N)n4nc(Cc5ncccc5F)nc34)cn12", "note": "[Example 100, 2-[(3-fluoropyridin-2-yl)methyl]-N7,N7-dimethyl-8-[3-methylimidazo[1,2-a]pyridin-6-yl]-[1,2,4]triazolo[1,5-c]pyrimidine-5,7-diamine]", "values": [{"measurement": "IC50", "setting": "[1]", "result": 1.2, "unit": "nM"}, {"measurement": "IC50", "setting": "[2]", "result": 11.8, "unit": "nM"}, {"measurement": "IC50", "setting": "[3]", "result": 38, "unit": "nM"}, {"measurement": "IC50", "setting": "[4]", "result": 3.5, "unit": "nM"}]}
{"smiles": "Cc1cnc2ccc(-c3c(N4CCCC4)nc(N)n4nc(Cc5ncccc5F)nc34)cn12", "note": "[Example 101, 2-((3*fluoropyridin-2-yl)methyl)-8-(3-methylimidazo[1,2-a]pyridin-6-yl)-7-(pyrrolidin-1-yl)-[1,2, 4]triazolo[l,5-c]pyrimidin-5-amine]", "values": [{"measurement": "IC50", "setting": "[1]", "result": 8.2, "unit": "nM"}, {"measurement": "IC50", "setting": "[2]", "result": 6.6, "unit": "nM"}, {"measurement": "IC50", "setting": "[3]", "result": 203, "unit": "nM"}, {"measurement": "IC50", "setting": "[4]", "result": 58.1, "unit": "nM"}]}
{"smiles": "Cc1cnc2ccc(-c3c(N4CCOCC4)nc(N)n4nc(Cc5ncccc5F)nc34)cn12", "note": "[Example 102, 2-((3-fluoropyridin-2-yl)methyl)-8-(3-methylimidazo[l,2-a]pyridin-6-yl)-7-morpholino-[l,2,4]tri azolo[1,5-c]pyrimidin-5-amine]", "values": [{"measurement": "IC50", "setting": "[1]", "result": 2.6, "unit": "nM"}, {"measurement": "IC50", "setting": "[2]", "result": 27.2, "unit": "nM"}, {"measurement": "IC50", "setting": "[3]", "result": 121, "unit": "nM"}, {"measurement": "IC50", "setting": "[4]", "result": 11.2, "unit": "nM"}]}
{"smiles": "Cc1cnc2ccc(-c3c(N4CCC5(COC5)C4)nc(N)n4nc(Cc5ncccc5F)nc34)cn12", "note": "[Example 110, 2-((3-fluoropyridin-2-yl)methyl)-8-(3-methylimidazo[1,2-a]pyridin-6-yl)-7-(2-oxa-6-azaspiro[3.4]octan-6-yl)-[l,2,4]triazolo[l,5-c]pyrimidin-5-amine]", "values": [{"measurement": "IC50", "setting": "[1]", "result": 795, "unit": "nM"}, {"measurement": "IC50", "setting": "[2]", "result": 85.9, "unit": "nM"}, {"measurement": "IC50", "setting": "[3]", "result": "> 10000", "unit": "nM"}, {"measurement": "IC50", "setting": "[4]", "result": 7190, "unit": "nM"}]}
{"smiles": "COCCc1nc2c(-c3ccc4ncc(C)n4c3)c(-c3ccc(F)cc3)nc(N)n2n1", "note": "[Example 114, 7-(4-fluorophenyl)-2-(2-methoxyethyl)-8-(3-methylimidazo[1,2-a]pyridin-6-yl)-[1,2,4]triazolo[1,5-c]pyrimidin-5-amine]", "values": [{"measurement": "IC50", "setting": "[1]", "result": 0.2, "unit": "nM"}, {"measurement": "IC50", "setting": "[2]", "result": 5.7, "unit": "nM"}, {"measurement": "IC50", "setting": "[3]", "result": 40.9, "unit": "nM"}, {"measurement": "IC50", "setting": "[4]", "result": 0.4, "unit": "nM"}]}
{"smiles": "Cc1cnc2ccc(-c3c(-n4ccc(F)n4)nc(N)n4nc(Cc5ncccc5F)nc34)cn12", "note": "[Example 116, 7-(3-fluoro-1H-pyrazol-1-yl)-2-((3-fluoropyridin-2-yl)methyl)-8-(3-methylimidazo[l,2-a]pyridin-6-yl)-[l,2,4]triazolo[l,5-c]pyrimidin-5-amine]", "values": [{"measurement": "IC50", "setting": "[1]", "result": 0.2, "unit": "nM"}, {"measurement": "IC50", "setting": "[2]", "result": 7.9, "unit": "nM"}, {"measurement": "IC50", "setting": "[3]", "result": 12.2, "unit": "nM"}, {"measurement": "IC50", "setting": "[4]", "result": 0.2, "unit": "nM"}]}
{"smiles": "Cc1cnc2ccc(-c3c(-n4cc(F)cn4)nc(N)n4nc(Cc5ncccc5F)nc34)cn12", "note": "[Example 117, 7-(4-fluoro-1H-pyrazol-1-yl)-2-((3-fluoropyridin-2-yl)methyl)-8-(3-methylimidazo[l,2-a]pyridin-6-yl)-[1,2,4]triazolo[1,5-c]pyrimidin-5-amine]", "values": [{"measurement": "IC50", "setting": "[1]", "result": 0.2, "unit": "nM"}, {"measurement": "IC50", "setting": "[2]", "result": 9.7, "unit": "nM"}, {"measurement": "IC50", "setting": "[3]", "result": 16.4, "unit": "nM"}, {"measurement": "IC50", "setting": "[4]", "result": 0.5, "unit": "nM"}]}
